In ChEMBL document CHEMBL3045707, “Synthesis of new 3-aryl-4-(3-aryl-4,5-dihydro-1H-pyrazol-5-yl)-1-phenyl-1H-pyrazole derivatives as potential antimicrobial agents” (2013) one finds zone of inhibition data, which are given here for 13 compounds.

What all share (format): functional
For assay [1], the system named is Escherichia coli. The experiment in a line: Antimicrobial activity against Escherichia coli ATCC 25922 assessed as diameter of growth inhibition zone at 500 ug/ml after 24 hr by agar well plate method. The following applies: ATCC 25922, 24 h, read-out: DIZ.
Assay [2] has as its system Candida albicans. Nature of the assay: Antimicrobial activity against Candida albicans MTCC 227 assessed as diameter of growth inhibition zone at 500 ug/ml after 72 hr by agar well plate method. The following applies: MTCC 227, 72 h, read-out: DIZ.
Assay [3] relates to Staphylococcus aureus. The experiment in a line: Antimicrobial activity against Staphylococcus aureus ATCC 25923 assessed as diameter of growth inhibition zone at 1000 ug/ml after 24 hr by agar well plate method. The settings on record: ATCC 25923, 24 h, read-out: DIZ.
Assay [4] concerns Aspergillus flavus. The experiment in a line: Antimicrobial activity against Aspergillus flavus assessed as diameter of growth inhibition zone at 500 ug/ml after 72 hr by agar well plate method. The settings on record: read-out: DIZ.
Assay [5] has as its system Chrysosporium keratinophilum. Nature of the assay: Antimicrobial activity against Chrysosporium keratinophilum assessed as diameter of growth inhibition zone at 500 ug/ml after 72 hr by agar well plate method. The following applies: read-out: DIZ.
Assay [6] concerns Staphylococcus aureus. The experiment in a line: Antimicrobial activity against Staphylococcus aureus ATCC 25923 assessed as diameter of growth inhibition zone at 500 ug/ml after 24 hr by agar well plate method. The settings on record: ATCC 25923, 24 h, read-out: DIZ.
The test system of assay [7] is Pseudomonas aeruginosa. Nature of the assay: Antimicrobial activity against Pseudomonas aeruginosa ATCC 27853 assessed as diameter of growth inhibition zone at 500 ug/ml after 24 hr by agar well plate method. The settings on record: ATCC 27853, 24 h, read-out: DIZ.
Assay [8] concerns Pseudomonas aeruginosa. The experiment in a line: Antimicrobial activity against Pseudomonas aeruginosa ATCC 27853 assessed as diameter of growth inhibition zone at 1000 ug/ml after 24 hr by agar well plate method. The settings on record: ATCC 27853, 24 h, read-out: DIZ.
Assay [9] relates to Chrysosporium keratinophilum. Nature of the assay: Antimicrobial activity against Chrysosporium keratinophilum assessed as diameter of growth inhibition zone at 1000 ug/ml after 72 hr by agar well plate method. The settings on record: read-out: DIZ.
The test system of assay [10] is Aspergillus flavus. The experiment in a line: Antimicrobial activity against Aspergillus flavus assessed as diameter of growth inhibition zone at 1000 ug/ml after 72 hr by agar well plate method. The settings on record: read-out: DIZ.
Assay [11] deals with Candida albicans. The experiment in a line: Antimicrobial activity against Candida albicans MTCC 227 assessed as diameter of growth inhibition zone at 1000 ug/ml after 72 hr by agar well plate method. The following applies: MTCC 227, 72 h, read-out: DIZ.
Assay [12] relates to Escherichia coli. The experiment in a line: Antimicrobial activity against Escherichia coli ATCC 25922 assessed as diameter of growth inhibition zone at 1000 ug/ml after 24 hr by agar well plate method. The following applies: ATCC 25922, 24 h, read-out: DIZ.

Take `COc1ccc(-c2nn(-c3ccccc3)cc2C2CC(c3ccc(SC)cc3)=NN2c2ccccc2)cc1` (centres undefined): the zone of inhibition at 500 µg/mL with Escherichia coli [1] was 1 mm; with Candida albicans [2], 0 mm; in the assay on Aspergillus flavus [4], 0 mm; in assay [5], 0 mm; with Staphylococcus aureus [6] it was 3 mm; in the assay on Pseudomonas aeruginosa [7] it was 2 mm. Also, the zone of inhibition at 1000 µg/mL in the assay on Staphylococcus aureus [3] worked out at 4 mm; in the assay with Pseudomonas aeruginosa [8] it was 4 mm; in [9], 0 mm; with Aspergillus flavus [10], 0 mm; in the assay on Candida albicans [11], 0 mm; with Escherichia coli [12], 2 mm.
Regarding `COc1ccc(-c2nn(-c3ccccc3)cc2C2CC(c3ccc(Cl)cc3Cl)=NN2c2ccccc2)cc1` (centres undefined), the zone of inhibition at 500 µg/mL came out at 2 mm with Escherichia coli [1]; 0 mm in the assay with Candida albicans [2]; 0 mm with Aspergillus flavus [4]; 0 mm in assay [5]; 3 mm with Staphylococcus aureus [6]; 1 mm in the assay on Pseudomonas aeruginosa [7]. Besides, the zone of inhibition at 1000 µg/mL in the assay with Staphylococcus aureus [3] stood at 4 mm; in the assay with Pseudomonas aeruginosa [8], 4 mm; in [9], 0 mm; in the assay on Aspergillus flavus [10] it was 0 mm; in the assay on Candida albicans [11], 0 mm; in the assay with Escherichia coli [12], 3 mm.
Regarding `Clc1ccc(-c2nn(-c3ccccc3)cc2C2CC(c3ccc(Cl)cc3Cl)=NN2c2ccccc2)cc1` (centres undefined), the zone of inhibition at 500 µg/mL in the assay with Escherichia coli [1] worked out at 4 mm; with Candida albicans [2], 2 mm; in the assay on Aspergillus flavus [4], 2 mm; in assay [5], 2 mm; with Staphylococcus aureus [6], 4 mm; with Pseudomonas aeruginosa [7], 6 mm. For the same compound, the zone of inhibition at 1000 µg/mL in the assay on Staphylococcus aureus [3] turned out to be 7 mm; in the assay on Pseudomonas aeruginosa [8], 8 mm; in assay [9], 5 mm; with Aspergillus flavus [10], 4 mm; with Candida albicans [11] it was 4 mm; with Escherichia coli [12], 6 mm.
For the compound `Clc1ccc(C2=NN(c3ccccc3)C(c3cn(-c4ccccc4)nc3-c3ccc(Br)cc3)C2)c(Cl)c1` (centres undefined), the zone of inhibition at 500 µg/mL is 5 mm in the assay with Escherichia coli [1]; 1 mm with Candida albicans [2]; 1 mm with Aspergillus flavus [4]; 2 mm in [5]; 6 mm in the assay with Staphylococcus aureus [6]; 5 mm with Pseudomonas aeruginosa [7]. Further, the zone of inhibition at 1000 µg/mL in the assay with Staphylococcus aureus [3] was 8 mm; in the assay with Pseudomonas aeruginosa [8] it was 5 mm; in assay [9], 4 mm; in the assay on Aspergillus flavus [10], 4 mm; in the assay on Candida albicans [11], 3 mm; with Escherichia coli [12], 8 mm.
As to `Clc1ccc(C2=NN(c3ccccc3)C(c3cn(-c4ccccc4)nc3-c3ccccc3)C2)c(Cl)c1` (centres undefined), the zone of inhibition at 500 µg/mL (in the assay with Escherichia coli [1]; in the assay on Candida albicans [2]; in the assay on Aspergillus flavus [4]; in assay [5]; with Staphylococcus aureus [6]; in the assay with Pseudomonas aeruginosa [7]) was 0 mm each time. For the same compound, the zone of inhibition at 1000 µg/mL (in the assay with Staphylococcus aureus [3]; in the assay with Pseudomonas aeruginosa [8]; in assay [9]; in the assay with Aspergillus flavus [10]; with Candida albicans [11]; with Escherichia coli [12]) was 0 mm throughout.
As to `CSc1ccc(C2=NN(c3ccccc3)C(c3cn(-c4ccccc4)nc3-c3ccc(Br)cc3)C2)cc1` (centres undefined), the zone of inhibition at 500 µg/mL in the assay on Escherichia coli [1] is 6 mm; in the assay on Candida albicans [2], 2 mm; in the assay on Aspergillus flavus [4], 3 mm; in assay [5], 5 mm; in the assay with Staphylococcus aureus [6] it was 7 mm; in the assay with Pseudomonas aeruginosa [7], 6 mm. The zone of inhibition at 1000 µg/mL in the assay on Staphylococcus aureus [3] is 9 mm; in the assay on Pseudomonas aeruginosa [8], 8 mm; in [9], 6 mm; with Aspergillus flavus [10], 4 mm; with Candida albicans [11] it was 4 mm; in the assay with Escherichia coli [12] it was 7 mm.
For the compound `COc1ccc(-c2nn(-c3ccccc3)cc2C2CC(c3ccc(-c4ccccc4)cc3)=NN2c2ccccc2)cc1` (centres undefined), the zone of inhibition at 500 µg/mL in the assay with Escherichia coli [1] turned out to be 2 mm; in the assay on Candida albicans [2], 0 mm; with Aspergillus flavus [4], 0 mm; in assay [5], 0 mm; in the assay on Staphylococcus aureus [6], 2 mm; in the assay on Pseudomonas aeruginosa [7] it was 2 mm. In addition, the zone of inhibition at 1000 µg/mL in the assay on Staphylococcus aureus [3] turned out to be 4 mm; in the assay on Pseudomonas aeruginosa [8], 5 mm; in assay [9] it was 0 mm; with Aspergillus flavus [10], 0 mm; in the assay with Candida albicans [11], 0 mm; with Escherichia coli [12], 4 mm.
Regarding `CSc1ccc(C2=NN(c3ccccc3)C(c3cn(-c4ccccc4)nc3-c3ccccc3)C2)cc1` (centres undefined), the zone of inhibition at 500 µg/mL in the assay on Escherichia coli [1] amounted to 1 mm; in the assay on Candida albicans [2] it was 0 mm; in the assay on Aspergillus flavus [4], 0 mm; in assay [5], 0 mm; with Staphylococcus aureus [6], 0 mm; with Pseudomonas aeruginosa [7] it was 2 mm. For the same compound, the zone of inhibition at 1000 µg/mL was found to be 2 mm with Staphylococcus aureus [3]; 3 mm in the assay on Pseudomonas aeruginosa [8]; 0 mm in assay [9]; 0 mm in the assay with Aspergillus flavus [10]; 0 mm in the assay on Candida albicans [11]; 3 mm in the assay with Escherichia coli [12].
Consider `CSc1ccc(C2=NN(c3ccccc3)C(c3cn(-c4ccccc4)nc3-c3ccc(Cl)cc3)C2)cc1` (centres undefined), for which the zone of inhibition at 500 µg/mL turned out to be 4 mm in the assay on Escherichia coli [1]; 1 mm in the assay with Candida albicans [2]; 2 mm in the assay on Aspergillus flavus [4]; 1 mm in [5]; 5 mm in the assay with Staphylococcus aureus [6]; 4 mm in the assay with Pseudomonas aeruginosa [7]. Moreover, the zone of inhibition at 1000 µg/mL came to 8 mm in the assay on Staphylococcus aureus [3]; 7 mm in the assay on Pseudomonas aeruginosa [8]; 3 mm in assay [9]; 3 mm in the assay with Aspergillus flavus [10]; 3 mm in the assay on Candida albicans [11]; 5 mm in the assay with Escherichia coli [12].
On to `Clc1ccc(-c2nn(-c3ccccc3)cc2C2CC(c3ccc(-c4ccccc4)cc3)=NN2c2ccccc2)cc1` (centres undefined), for which the zone of inhibition at 500 µg/mL in the assay with Escherichia coli [1] turned out to be 5 mm; with Candida albicans [2], 2 mm; with Aspergillus flavus [4], 3 mm; in [5], 3 mm; in the assay with Staphylococcus aureus [6], 6 mm; in the assay on Pseudomonas aeruginosa [7], 6 mm. Further, the zone of inhibition at 1000 µg/mL turned out to be 8 mm with Staphylococcus aureus [3]; 4 mm with Pseudomonas aeruginosa [8]; 4 mm in [9]; 5 mm in the assay with Aspergillus flavus [10]; 5 mm with Candida albicans [11]; 7 mm in the assay on Escherichia coli [12].
As to `Brc1ccc(-c2nn(-c3ccccc3)cc2C2CC(c3ccc(-c4ccccc4)cc3)=NN2c2ccccc2)cc1` (centres undefined), the zone of inhibition at 500 µg/mL in the assay with Escherichia coli [1] turned out to be 6 mm; in the assay on Candida albicans [2], 4 mm; in the assay on Aspergillus flavus [4] it was 5 mm; in [5], 3 mm; in the assay on Staphylococcus aureus [6] it was 4 mm; in the assay on Pseudomonas aeruginosa [7] it was 5 mm. Moreover, the zone of inhibition at 1000 µg/mL is 6 mm in the assay on Staphylococcus aureus [3]; 7 mm in the assay with Pseudomonas aeruginosa [8]; 4 mm in [9]; 6 mm in the assay on Aspergillus flavus [10]; 5 mm in the assay on Candida albicans [11]; 9 mm with Escherichia coli [12].
For the compound `OC(Cn1cncn1)(Cn1cncn1)c1ccc(F)cc1F` [FLUCONAZOLE], the zone of inhibition at 500 µg/mL with Candida albicans [2] is 20 mm; in the assay with Aspergillus flavus [4], 10 mm; in assay [5], 15 mm. Also, the zone of inhibition at 1000 µg/mL was 17 mm in [9], 13 mm in the assay on Aspergillus flavus [10] and 22 mm in the assay with Candida albicans [11].
With `CN[C@@H]1[C@H](O[C@H]2[C@H](O[C@H]3[C@H](O)[C@@H](O)[C@H](N=C(N)N)[C@@H](O)[C@@H]3N=C(N)N)O[C@@H](C)[C@]2(O)C=O)O[C@@H](CO)[C@H](O)[C@H]1O` [STREPTOMYCIN], the values for the zone of inhibition at 500 µg/mL with Escherichia coli [1], in the assay on Staphylococcus aureus [6] and in the assay on Pseudomonas aeruginosa [7] were 10 mm, 10 mm and 13 mm, respectively. Also, the zone of inhibition at 1000 µg/mL in the assay on Staphylococcus aureus [3] is 15 mm; in the assay on Pseudomonas aeruginosa [8], 16 mm; in the assay on Escherichia coli [12] it was 16 mm.
